Experimental data from BindingDB's records for doi:10.1016/j.bioorg.2016.06.001 (Tehran University of Medical Sciences, 2016).
pIC50: −log10 of the molar value.

What was measured:
Conditions in all cases: pH 8
Acetylcholinesterase = Acetylcholinesterase (Electrophorus electricus, UniProt O42275); test: AChE and BChE Inhibition Assay
Method: (§1) In vitro AChEI activity was performed based on the modified Ellman's methodas previously reported by our group using a 96-well plate reader (BioTek ELx808). […] Each well contained 50 uL potassium phosphate buffer (KH2PO4/K2HPO4, 0.1 M, pH 8), 25 uL prepared sample as described above, 25 uL enzyme with final concentration of 0.22 U/mL in buffer. They were preincubated for 15 min at rt, and then 125 uL DTNB (3 mM in buffer) was added. […] The IC50 values were determined graphically from inhibition curves (log inhibitor concentration vs. percent of inhibition).

[1] = molecular target: Carboxylic ester hydrolase (Equus caballus, UniProt Q9N1N9); test: AChE and BChE Inhibition Assay
Chain of Carboxylic ester hydrolase (Q9N1N9 whole entry): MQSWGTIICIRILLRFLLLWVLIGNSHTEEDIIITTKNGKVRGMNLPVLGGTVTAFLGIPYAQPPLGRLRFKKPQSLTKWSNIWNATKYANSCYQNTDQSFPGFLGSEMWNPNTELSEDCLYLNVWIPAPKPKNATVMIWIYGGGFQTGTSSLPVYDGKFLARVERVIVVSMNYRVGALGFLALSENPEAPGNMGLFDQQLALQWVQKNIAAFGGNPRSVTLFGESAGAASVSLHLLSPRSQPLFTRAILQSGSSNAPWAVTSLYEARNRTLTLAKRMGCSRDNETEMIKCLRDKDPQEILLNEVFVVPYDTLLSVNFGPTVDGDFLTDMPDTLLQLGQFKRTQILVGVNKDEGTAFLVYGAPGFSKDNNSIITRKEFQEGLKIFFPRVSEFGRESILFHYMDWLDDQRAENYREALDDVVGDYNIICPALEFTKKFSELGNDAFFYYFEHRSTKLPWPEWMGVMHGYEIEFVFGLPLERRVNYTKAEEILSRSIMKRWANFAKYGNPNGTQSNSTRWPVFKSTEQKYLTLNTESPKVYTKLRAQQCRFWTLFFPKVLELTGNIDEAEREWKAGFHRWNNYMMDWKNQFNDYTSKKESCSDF
Method: as §1

[2] = AChE and BChE Inhibition Assay

Chain of Acetylcholinesterase (O42275 whole entry): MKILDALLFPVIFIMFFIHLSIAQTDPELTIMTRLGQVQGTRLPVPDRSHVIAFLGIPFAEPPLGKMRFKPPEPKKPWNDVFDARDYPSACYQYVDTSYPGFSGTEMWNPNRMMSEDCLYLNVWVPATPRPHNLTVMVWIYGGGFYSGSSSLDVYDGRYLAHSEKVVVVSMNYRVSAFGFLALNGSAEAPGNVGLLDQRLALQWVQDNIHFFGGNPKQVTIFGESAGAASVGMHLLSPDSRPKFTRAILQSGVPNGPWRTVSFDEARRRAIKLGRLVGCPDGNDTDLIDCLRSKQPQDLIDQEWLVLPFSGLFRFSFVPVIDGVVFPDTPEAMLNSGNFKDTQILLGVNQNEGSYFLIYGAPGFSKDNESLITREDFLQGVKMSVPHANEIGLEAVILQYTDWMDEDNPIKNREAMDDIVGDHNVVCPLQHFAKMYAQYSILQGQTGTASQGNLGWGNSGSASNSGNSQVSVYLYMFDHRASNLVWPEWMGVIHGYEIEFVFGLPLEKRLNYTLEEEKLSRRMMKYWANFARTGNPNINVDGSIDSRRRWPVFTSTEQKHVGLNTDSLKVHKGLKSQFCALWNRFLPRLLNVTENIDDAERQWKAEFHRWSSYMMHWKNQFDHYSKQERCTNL

Row | SMILES | pIC50 (Acetylcholinesterase) | pIC50 [1] | pIC50 [2]
1 | O=c1ccc2ccc(Oc3ccc(Nc4c5c(nc6ccc(Cl)cc46)CCCC5)cc3)cc2o1 [7-(4-((7-Chloro-1,2,3,4-tetrahydroacridin-9-yl)amino)phenoxy)-2H-chromen-2-one (8i)] | < 4.00 | < 4.00 | 
2 | O=c1ccc2ccc(Oc3ccc(Nc4c5c(nc6ccccc46)CCCCC5)cc3)cc2o1 [7-(4-((7,8,9,10-Tetrahydro-6H-cyclohepta[b]quinolin-11-yl)amino)phenoxy)-2H-chromen-2-one (8m)] | < 4.00 | < 4.00 | 
3 | O=c1ccc2ccc(Oc3ccc(Nc4c5c(nc6ccccc46)CCC5)cc3)cc2o1 [7-(4-((2,3-Dihydro-1H-cyclopenta[b]quinolin-9-yl)amino)phenoxy)-2H-chromen-2-one (8a)] | 4.08 | < 4.00 | 
4 | Cc1cc(=O)oc2cc(Oc3ccc(Nc4c5c(nc6ccc(Cl)cc46)CCCCC5)cc3)ccc12 [7-(4-(2-Chloro-7,8,9,10-tetrahydro-6H-cyclohepta[b]quinolin-11-ylamino)phenoxy)-4-methyl-2H-chromen-2-one (8q)] | 4.27 | < 4.00 | 
5 | Cc1cc(=O)oc2cc(Oc3ccc(Nc4c5c(nc6ccccc46)CCCC5)cc3)ccc12 [4-Methyl-7-(4-((1,2,3,4-tetrahydroacridin-9-yl)amino)phenoxy)-2H-chromen-2-one (8j)] | 4.66 | 4.41 | 
6 | O=c1ccc2ccc(Oc3ccc(Nc4c5c(nc6ccccc46)CCCC5)cc3)cc2o1 [7-(4-((1,2,3,4-Tetrahydroacridin-9-yl)amino)phenoxy)-2H-chromen-2-one (8g)] | 4.72 | 4.54 | 
7 | O=c1ccc2ccc(Oc3ccc(Nc4c5c(nc6ccc(Cl)cc46)CCC5)cc3)cc2o1 [7-(4-((7-Chloro-2,3-dihydro-1H-cyclopenta[b]quinolin-9-yl)amino)phenoxy)-2H-chromen-2-one (8c)] | 4.41 | < 4.00 | 
8 | Cc1cc(=O)oc2cc(Oc3ccc(Nc4c5c(nc6cc(Cl)ccc46)CCCC5)cc3)ccc12 [7-(4-((6-Chloro-1,2,3,4-tetrahydroacridin-9-yl)amino)phenoxy)-4-methyl-2H-chromen-2-one (8k)] | 4.74 | 4.51 | 
9 | Cc1cc(=O)oc2cc(Oc3ccc(Nc4c5c(nc6cc(Cl)ccc46)CCC5)cc3)ccc12 [7-(4-((6-Chloro-2,3-dihydro-1H-cyclopenta[b]quinolin-9-yl)amino)phenoxy)-4-methyl-2H-chromen-2-one (8e)] | 4.79 | < 4.00 | 5.10
10 | Cc1cc(=O)oc2cc(Oc3ccc(Nc4c5c(nc6ccccc46)CCCCC5)cc3)ccc12 [4-Methyl-7-(4-((7,8,9,10-tetrahydro-6H-cyclohepta[b]quinolin-11-yl)amino)phenoxy)-2H-chromen-2-one (8o)] | 4.19 | < 4.00 | 
11 | Cc1cc(=O)oc2cc(Oc3ccc(Nc4c5c(nc6cc(Cl)ccc46)CCCCC5)cc3)ccc12 [7-(4-((3-Chloro-7,8,9,10-tetrahydro-6H-cyclohepta[b]quinolin-11-yl)amino)phenoxy)-4-methyl-2H-chromen-2-one (8p)] | 4.50 | < 4.00 | 
12 | O=c1ccc2ccc(Oc3ccc(Nc4c5c(nc6cc(Cl)ccc46)CCCCC5)cc3)cc2o1 [7-(4-((3-Chloro-7,8,9,10-tetrahydro-6H-cyclohepta[b]quinolin-11-yl)amino)phenoxy)-2H-chromen-2-one (8n)] | < 4.00 | < 4.00 | 
13 | Cc1cc(=O)oc2cc(Oc3ccc(Nc4c5c(nc6ccc(Cl)cc46)CCCC5)cc3)ccc12 [7-(4-((7-Chloro-1,2,3,4-tetrahydroacridin-9-yl)amino)phenoxy)-4-methyl-2H-chromen-2-one (8l)] | 4.51 | < 4.00 | 
14 | O=c1ccc2ccc(Oc3ccc(Nc4c5c(nc6cc(Cl)ccc46)CCC5)cc3)cc2o1 [7-(4-((6-Chloro-2,3-dihydro-1H-cyclopenta[b]quinolin-9-yl)amino)phenoxy)-2H-chromen-2-one (8b)] | < 4.00 | 4.93 | 
15 | Cc1cc(=O)oc2cc(Oc3ccc(Nc4c5c(nc6ccc(Cl)cc46)CCC5)cc3)ccc12 [7-(4-((7-Chloro-2,3-dihydro-1H-cyclopenta[b]quinolin-9-yl)amino)phenoxy)-4-methyl-2H-chromen-2-one (8f)] | 4.44 | < 4.00 | 
16 | O=c1ccc2ccc(Oc3ccc(Nc4c5c(nc6cc(Cl)ccc46)CCCC5)cc3)cc2o1 [7-(4-((6-Chloro-1,2,3,4-tetrahydroacridin-9-yl)amino)phenoxy)-2H-chromen-2-one (8h)] | < 4.00 | < 4.00 | 
17 | Cc1cc(=O)oc2cc(Oc3ccc(Nc4c5c(nc6ccccc46)CCC5)cc3)ccc12 [7-(4-((2,3-Dihydro-1H-cyclopenta[b]quinolin-9-yl)amino)phenoxy)-4-methyl-2H-chromen-2-one (8d)] | 4.34 | < 4.00 | 
